According to PubChem BioAssay AID256 (DTP/NCI, 2004):
“And” between values parts separate entries of the source, which are not always exact repeats. Identical values can stand only once. Inconclusive results and toxic doses are left out.

Tested on: CD2F1 mice, L1210 leukemia ip, survival T/C
Assay: NCI In Vivo Anticancer Drug Screen. Data for tumor model L1210 Leukemia (intraperitoneal) in CD2F1 (CDF1) mice
Conditions: higher = longer survival
Method in brief: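 Read-out first: treated-group measurement over vehicle-control measurement, expressed as a ratio. Animals bore a transplanted tumor line and were dosed with compound or vehicle.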

[1] = endpoint: mean survival time, dose: 100.0 mg/kg/injection, schedule: Q04DX003 (ip), vehicle: saline with Tween-80
[2] = endpoint: mean survival time, dose: 200.0 mg/kg/injection, schedule: Q04DX003 (ip), vehicle: saline with Tween-80
[3] = endpoint: mean survival time, dose: 400.0 mg/kg/injection, schedule: Q04DX003 (ip), vehicle: saline with Tween-80
[4] = endpoint: mean survival time, dose: 100.0 mg/kg/injection, schedule: Q01DX009 (ip), vehicle: saline with Tween-80
[5] = endpoint: mean survival time, dose: 200.0 mg/kg/injection, schedule: Q01DX009 (ip), vehicle: saline with Tween-80
[6] = endpoint: mean survival time, dose: 400.0 mg/kg/injection, schedule: Q01DX009 (ip), vehicle: saline with Tween-80
[7] = endpoint: mean survival time, dose: 50.0 mg/kg/injection, schedule: Q01DX009 (ip), vehicle: saline with Tween-80

Cc1ccccc1OCc1ccccc1
T/C (endpoint: mean survival time, dose: 50.0 mg/kg/injection, schedule: Q04DX003 (ip), vehicle: saline with Tween-80): 104 % of control | T/C [1]: 98 % of control and 101 % of control | T/C [2]: 102 % of control and 104 % of control | T/C [3]: 94 % of control

O=C1CC2CCCCC2CO1 (stereo not drawn)
T/C (endpoint: mean survival time, dose: 75.0 mg/kg/injection, schedule: Q01DX001 (ip), vehicle: saline): 160 % of control

c1ccc2ncccc2c1
T/C (endpoint: mean survival time, dose: 100.0 mg/kg/injection, schedule: Q01DX009 (ip), vehicle: other): 103 % of control | T/C (endpoint: mean survival time, dose: 200.0 mg/kg/injection, schedule: Q01DX009 (ip), vehicle: other): 101 % of control

ClCCN(CCCl)c1ccc(N=Nc2ccccc2)cc1
T/C (endpoint: mean survival time, dose: 100.0 mg/kg/injection, schedule: Q04DX003 (ip), vehicle: Klucel (hydroxypropylcellulose) (HPC)): 102 % of control | T/C (endpoint: mean survival time, dose: 200.0 mg/kg/injection, schedule: Q04DX003 (ip), vehicle: Klucel (hydroxypropylcellulose) (HPC)): 113 % of control | T/C (endpoint: mean survival time, dose: 400.0 mg/kg/injection, schedule: Q04DX003 (ip), vehicle: Klucel (hydroxypropylcellulose) (HPC)): 113 % of control

[N-]=[N+]=NC1C(O)C(CO)OC1n1c(=O)[nH]c2c(N)ncnc21 (stereo not drawn)
T/C (endpoint: mean survival time, dose: 12.5 mg/kg/injection, schedule: Q01DX005 (ip), vehicle: water): 94 % of control | T/C (endpoint: mean survival time, dose: 25.0 mg/kg/injection, schedule: Q01DX005 (ip), vehicle: water): 99 % of control | T/C (endpoint: mean survival time, dose: 50.0 mg/kg/injection, schedule: Q01DX005 (ip), vehicle: water): 97 % of control | T/C (endpoint: mean survival time, dose: 100.0 mg/kg/injection, schedule: Q01DX005 (ip), vehicle: water): 97 % of control | T/C (endpoint: mean survival time, dose: 200.0 mg/kg/injection, schedule: Q01DX005 (ip), vehicle: water): 97 % of control

CC(c1ccccc1)C(OC(=O)c1ccc([N+](=O)[O-])cc1)c1ccccc1 (stereo not drawn)
T/C [4]: 97 % of control | T/C [1]: 98 % of control | T/C [5]: 94 % of control | T/C [2]: 94 % of control | T/C [6]: 91 % of control | T/C [3]: 98 % of control

Cc1ccc(S(=O)(=O)N/N=C2/C=C3C/C(=N\NS(=O)(=O)c4ccc(C)cc4)C=C3C2)cc1
T/C [7]: 93 % of control | T/C [4]: 89 % of control | T/C [5]: 89 % of control

Cc1cc(F)ccc1[As](=O)(O)O
T/C (endpoint: mean survival time, dose: 6.25 mg/kg/injection, schedule: Q04DX003 (ip), vehicle: saline with Tween-80): 103 % of control | T/C (endpoint: mean survival time, dose: 12.5 mg/kg/injection, schedule: Q04DX003 (ip), vehicle: saline with Tween-80): 95 % of control | T/C (endpoint: mean survival time, dose: 25.0 mg/kg/injection, schedule: Q04DX003 (ip), vehicle: saline with Tween-80): 97 % of control

O=C(O)CNCP(=O)(O)O
T/C [4]: 95 % of control | T/C [1]: 105 % of control | T/C [5]: 93 % of control | T/C [2]: 102 % of control | T/C [6]: 89 % of control | T/C [3]: 100 % of control

Nc1ccc2[nH]c(=S)sc2c1
T/C [1]: 94 % of control | T/C [2]: 92 % of control | T/C [3]: 90 % of control

c1ccc(C2=NN(c3ccccc3)C(c3ccccc3)C2NC2CCCCC2)cc1 (stereo not drawn)
T/C (endpoint: mean survival time, dose: 100.0 mg/kg/injection, schedule: Q04DX003 (ip), vehicle: acetone): 93 % of control | T/C (endpoint: mean survival time, dose: 200.0 mg/kg/injection, schedule: Q04DX003 (ip), vehicle: acetone): 92 % of control | T/C (endpoint: mean survival time, dose: 400.0 mg/kg/injection, schedule: Q04DX003 (ip), vehicle: acetone): 97 % of control

NC1CCCCC1N.O=C([O-])c1ccc(N=Nc2cccc([N+](=O)[O-])c2)cc1[O-].[Pt+4]
T/C (endpoint: median survival time, dose: 3.12 mg/kg/injection, schedule: Q04DX003 (ip), vehicle: saline with Tween-80): 105 % of control and 109 % of control | T/C (endpoint: median survival time, dose: 6.25 mg/kg/injection, schedule: Q04DX003 (ip), vehicle: saline with Tween-80): 102 % of control and 110 % of control | T/C (endpoint: median survival time, dose: 12.5 mg/kg/injection, schedule: Q04DX003 (ip), vehicle: saline with Tween-80): 113 % of control | T/C (endpoint: median survival time, dose: 25.0 mg/kg/injection, schedule: Q04DX003 (ip), vehicle: saline with Tween-80): 116 % of control and 123 % of control | T/C (endpoint: median survival time, dose: 50.0 mg/kg/injection, schedule: Q04DX003 (ip), vehicle: saline with Tween-80): 123 % of control | T/C (endpoint: median survival time, dose: 100.0 mg/kg/injection, schedule: Q04DX003 (ip), vehicle: saline with Tween-80): 156 % of control | T/C (endpoint: median survival time, dose: 200.0 mg/kg/injection, schedule: Q04DX003 (ip), vehicle: saline with Tween-80): 166 % of control and 313 % of control

CC1(C)C=Cc2ccccc21
T/C [7]: 113 % of control | T/C [4]: 113 % of control
